The values below come from PMC7309260, “Peptide Probes for Plasmodium falciparum MyoA Tail Interacting Protein (MTIP): Exploring the Druggability of the Malaria Parasite Motor Complex” (ACS Chemical Biology, 2020).

Read-outs that look alike come from different tables or passages of the source. Where a SMILES comes first, the peptide text is derived from it. Where no end group is shown, it is not given here. [ ]: non-standard residue; d: D form. The star is where a group is joined. 5FAM = O=C1OC2(c3ccc(O)cc3Oc3cc(O)ccc32)c2ccc(C(=O)*)cc21; Abu(3-Me-diazirin-3-yl) = CC1(CC[C@H](N)C(=O)O)N=N1

For data set [1], the target named is T1, PfMTIPΔ60 (Plasmodium falciparum, UniProt Q8I4W8).
T1 construct: PfMTIPΔ60 stocks were recombinantly expressed in E. coli BL21; made in house; host or cells: E. coli BL21
The data set is described as follows: biochemical. It counts as binding.

Data set [2] has as its system P. falciparum (3D7 strain). Conditions: for uptake of polyarginines compared by chain length: flow cytometry (Figure 2c).
Data set [3] has as its system P. falciparum late schizonts. Conditions: 10 μM peptide, 3 h.
The subject of data set [4] is P. falciparum. Conditions: read-out: EC50, P. falciparum reinvasion / cell viability; serial dilution of peptides in triplicate, egress in presence of peptide, flow cytometry at trophozoite stage, n = 3.
Data set [5] concerns the target T1, PfMTIPΔ60. Briefly: biochemical. Type of data set: binding. Conditions: for n (ITC stoichiometry) / ΔH (ITC) / ΔS (ITC): 303 K, n = 2.
Data set [6] relates to P. falciparum. The data set is described as follows: microbe, parasite or virus in culture. Conditions: Plasmodium falciparum, read-out: EC50, P. falciparum reinvasion control curve.
Where [7] appears, read: 1% TX-100, densitometry, 2 µL loading.
[8] abbreviates: 1% TX-100, densitometry, 5 µL loading.
Where [9] appears, read: 1% TX-100, densitometry, average of 2 µL and 5 µL loadings.
The mark [10] stands for this setting: densitometry, average of 2 µL and 5 µL loadings.

Consider `CC[C@H](C)[C@H](NC(=O)[C@H](Cc1c[nH]cn1)NC(=O)[C@H](C)NC(=O)[C@H](CCC(N)=O)NC(=O)[C@@H](NC(=O)[C@H](CCCNC(=N)N)NC(=O)[C@H](CC(C)C)NC(=O)[C@H](CC(C)C)NC(=O)[C@H](CO)NC(=O)[C@@H]1CCCN1C(=O)[C@@H](NC(=O)[C@H](CC(N)=O)NC(=O)[C@H](CCCNC(=N)N)NC(=O)CNC(=O)c1ccc2c(c1)C(=O)OC21c2ccc(O)cc2Oc2cc(O)ccc21)[C@@H](C)CC)C(C)C)C(=O)N[C@@H](CCCNC(=N)N)C(=O)N[C@@H](CCCNC(=N)N)C(=O)N[C@@H](CCCNC(=N)N)C(=O)N[C@@H](CCSC)C(=O)N[C@H](C(N)=O)C(C)C` [F-ArgMy1] (5FAM-GRNIPSLLRVQAHIRRRMV-NH2), for which the Kd in data set [1] is 3.9 nM. In data set [2] (Pf3D7 early schizonts, flow cytometry (Figure 2d)), the “fold improvement in uptake compared to F-My1” value came out at 2 fold. In addition, the “permeability, share of all parasitized cells” value in data set [2] (midstage schizonts, flow cytometry) was “up to 50%”. Moreover, in data set [3] (setting [7]), the “In vivo Conc, TX I (insoluble)” value is given as 0.06 µM and the “In vivo Conc, TX S (soluble)” value stood at 2.94 µM. Further, in data set [3] (setting [8]), the “In vivo Conc, TX I (insoluble)” value is listed as 0.39 µM and the “In vivo Conc, TX S (soluble)” value is 7.17 µM. In addition, in data set [3] (setting [9]), the “In vivo Conc, TX I (insoluble), Av.” value came to 0.22 µM and the “In vivo Conc, TX S (soluble), Av.” value worked out at 5.06 µM. The “In vivo Conc, SLO S (soluble)” value in data set [3] (densitometry, 2 µL loading) was 2.03 µM. In data set [3] (densitometry, 5 µL loading), the “In vivo Conc, SLO I (insoluble)” value is listed as 0.93 µM and the “In vivo Conc, SLO S (soluble)” value is 3.01 µM. Further, in data set [3] (setting [10]), the “In vivo Conc, SLO I (insoluble), Av.” value is recorded as 0.51 µM and the “In vivo Conc, SLO S (soluble), Av.” value was determined as 2.52 µM. The “In vivo Conc, SLO I (insoluble)” value in data set [3] (late schizonts, densitometry of in-gel fluorescence, 2 µL loading) is recorded as 0.10 µM. Also, the EC50 in data set [4] was roughly 160000 nM.

In turn, `CC[C@H](C)[C@H](NC(=O)[C@H](Cc1c[nH]cn1)NC(=O)[C@H](CCCNC(=N)N)NC(=O)[C@H](CCC(N)=O)NC(=O)[C@@H](NC(=O)[C@H](C)NC(=O)[C@H](CC(C)C)NC(=O)[C@H](CCCNC(=N)N)NC(=O)[C@H](CO)NC(=O)[C@@H]1CCCN1C(=O)[C@@H](NC(=O)[C@H](CC(N)=O)NC(=O)[C@H](CC(C)C)NC(=O)CNC(=O)c1ccc2c(c1)C(=O)OC21c2ccc(O)cc2Oc2cc(O)ccc21)[C@@H](C)CC)C(C)C)C(=O)N[C@@H](CCCNC(=N)N)C(=O)N[C@@H](CCCNC(=N)N)C(=O)N[C@@H](CCCNC(=N)N)C(=O)N[C@@H](CCSC)C(=O)N[C@H](C(N)=O)C(C)C` [F-ArgMy2] (5FAM-GLNIPSRLAVQRHIRRRMV-NH2) returned a Kd in data set [1] of 4220 nM.

As to `CC[C@H](C)[C@H](NC(=O)[C@H](Cc1c[nH]cn1)NC(=O)[C@H](C)NC(=O)[C@H](CCC(N)=O)NC(=O)[C@@H](NC(=O)[C@H](CCCNC(=N)N)NC(=O)[C@H](CC(C)C)NC(=O)[C@H](CC(C)C)NC(=O)[C@H](CO)NC(=O)[C@@H]1CCCN1C(=O)[C@@H](NC(=O)[C@H](CC(N)=O)NC(=O)[C@H](CCCCN)NC(=O)CNC(=O)c1ccc2c(c1)C(=O)OC21c2ccc(O)cc2Oc2cc(O)ccc21)[C@@H](C)CC)C(C)C)C(=O)N[C@@H](CCCNC(=N)N)C(=O)N[C@@H](CCCCN)C(=O)N[C@@H](CCCCN)C(=O)N[C@@H](CCSC)C(=O)N[C@H](C(N)=O)C(C)C` [F-My1] (5FAM-GKNIPSLLRVQAHIRKKMV-NH2), in data set [5], the Kd was determined as 57.1 ± 13 nM, the “n (ITC stoichiometry)” value is 0.91 ± 0.01, the “ΔH (ITC)” value was -17.6 ± 0.22 kcal/mol and the “ΔS (ITC)” value is -104 J/K.mol. Besides, the EC50 in data set [4] was roughly 160000 nM.

As to `CC[C@H](C)[C@H](NC(=O)[C@H](Cc1c[nH]cn1)NC(=O)[C@H](C)NC(=O)[C@H](CCC(N)=O)NC(=O)[C@@H](NC(=O)[C@H](CCCNC(=N)N)NC(=O)[C@H](CC(C)C)NC(=O)[C@H](CC(C)C)NC(=O)[C@H](CO)NC(=O)[C@@H]1CCCN1C(=O)[C@@H](NC(=O)[C@H](CC(N)=O)NC(=O)[C@H](CCCCN)NC(=O)CNC(=O)[C@H](CCC1(C)N=N1)NC(=O)c1ccc2c(c1)C(=O)OC21c2ccc(O)cc2Oc2cc(O)ccc21)[C@@H](C)CC)C(C)C)C(=O)N[C@@H](CCCNC(=N)N)C(=O)N[C@@H](CCCCN)C(=O)N[C@@H](CCCCN)C(=O)N[C@@H](CCSC)C(=O)N[C@H](C(N)=O)C(C)C` [F/D-My1] (5FAM-[Abu(3-Me-diazirin-3-yl)]GKNIPSLLRVQAHIRKKMV-NH2), the affinity in data set [1], expressed as Kd, was 3.4 nM.

Consider `C[C@H]1[C@@H](O)O[C@@H]2O[C@@]3(C)CC[C@H]4[C@H](C)CC[C@@H]1[C@@]24OO3` [dihydroartemisin, Dihydroartemisinin], for which, in data set [6], the EC50 was 10 nM.

Consider FAM GRRRRRR -NH2 [F-Arg6], for which the “uptake of polyarginines compared by chain length” value (shortened to “uptake … compared by chain length”) in data set [2] (Pf3D7 early schizonts) is given as “significant improvement over F-Arg4”.

In the case of FAM GRRRRRRR -NH2 [F-Arg7], in data set [2] (Pf3D7 early schizonts), the “uptake … compared by chain length” value is reported as “significantly greater than F-Arg6”.

Regarding FAM GRRRRRRRR -NH2 [F-Arg8], in data set [2] (Pf3D7 early schizonts ca. 35 h PI, flow cytometry, unpaired t test (Figure 2b)), the “uptake compared with F-My1” value was “significantly greater permeability over F-My1”. The “uptake … compared by chain length” value in data set [2] (Pf3D7 early schizonts) is “significantly greater than F-Arg6”.

“KNIPSLLRVQAHIRKKMV-NH2 (C-terminus assumed) [My1]”: in data set [5], the “n (ITC stoichiometry)” value is given as 1.06 ± 0.01, the “ΔH (ITC)” value was -15.9 ± 0.12 kcal/mol and the “ΔS (ITC)” value was -85.9 J/K.mol.
